From article PMC9124818 (Pharmacology Research & Perspectives, 2022)
Like-named read-outs stand apart in the source and are kept apart here.

Experiments:
[1] = system: CYP450 enzymes; assay: Time- and metabolism-dependent CYP450 inhibition in human liver microsomes; assay type: in vitro ADME; conditions: compared to direct inhibition
[2] = system: CYP3A4 mRNA; assay: in vitro; conditions: for EC50 / Basic kinetic model: Emax (fold): ± standard error; for Fold‐change method: Fold change: highest dose tested (40 µM fenfluramine, 50 µM norfenfluramine); for Fold‐change method: % of control: percent of positive control induction of mRNA; for Basic kinetic model: Emax (fold): fit of fold‐change −1 values
Protocol: Cells were then harvested to isolate RNA, which was analyzed by quantitative reverse transcription‐polymerase chain reaction (qRT‐PCR) for induction of CYP1A2, CYP2B6, and CYP3A4 mRNA levels. Total RNA was phase extracted with TRIzol followed by purification with an RNeasy Mini Kit (Qiagen Inc., Germantown, MD). Quantitative PCR was performed in triplicate with a 7900HT Fast Real Time PCR System, an Applied Biosystems Universal Master Mix, and TaqMan® Gene Expression Assays. The quantity of target cDNA relative to control cDNA (GAPDH) was determined by the ΔΔCT method (Applied Biosystems User Bulletin #2). Relative quantitation measures the change in mRNA expression in a test sample relative to that in the control sample (i.e., DMSO). This method assumes that the efficiency of target amplification and the efficiency of endogenous control amplification are approximately equal.
mRNA assessment was conducted using a quantitative reverse transcription-polymerase chain reaction (qRT-PCR) according to the Applied Biosystems protocol. Each PCR was performed in triplicate. A Primer Mix was prepared for each Gene Expression assay. A typical Primer Mix contained TaqMan Fast Advanced Master Mix (1X), Gene Expression Assay (1X, 900 nM forward and reverse primers) and ribonuclease (RNase)-free water. The Reaction Mix was prepared by adding the Primer Mix to cDNA. A percentage of samples (no less than 10%) included NACs. […] The relative quantity of the target cDNA compared with that of the control cDNA (GAPDH) was determined by the ΔΔCt method (Applied Biosystems User Bulletin #2). Relative quantitation measures the change in mRNA expression in a test sample relative to that in a control sample (eg, dimethyl sulfoxide [DMSO]). This method assumes that the efficiency of the target amplification and the efficiency of the endogenous control amplification are approximately equal.
This software analyzes relative gene expression using the comparative Ct method (ΔΔCt), which relates the PCR signal of the target transcript to the PCR signal of the target in an untreated control. Both the treated sample and the untreated control signals are normalized to the endogenous control (GAPDH), for which expression is not affected by treatment and expression is constant throughout the tissue being tested.
The level of mRNA expression relative to the positive control was calculated as follows: […]

[3] = target: T1, BCRP (Homo sapiens, UniProt Q9UNQ0); assay: Transporter inhibition, bidirectional permeability of prazosin in MDCKII-BCRP cells; assay type: in vitro ADME
T1 construct: host or cells: MDCKII
T1 sequence (Q9UNQ0 1-655): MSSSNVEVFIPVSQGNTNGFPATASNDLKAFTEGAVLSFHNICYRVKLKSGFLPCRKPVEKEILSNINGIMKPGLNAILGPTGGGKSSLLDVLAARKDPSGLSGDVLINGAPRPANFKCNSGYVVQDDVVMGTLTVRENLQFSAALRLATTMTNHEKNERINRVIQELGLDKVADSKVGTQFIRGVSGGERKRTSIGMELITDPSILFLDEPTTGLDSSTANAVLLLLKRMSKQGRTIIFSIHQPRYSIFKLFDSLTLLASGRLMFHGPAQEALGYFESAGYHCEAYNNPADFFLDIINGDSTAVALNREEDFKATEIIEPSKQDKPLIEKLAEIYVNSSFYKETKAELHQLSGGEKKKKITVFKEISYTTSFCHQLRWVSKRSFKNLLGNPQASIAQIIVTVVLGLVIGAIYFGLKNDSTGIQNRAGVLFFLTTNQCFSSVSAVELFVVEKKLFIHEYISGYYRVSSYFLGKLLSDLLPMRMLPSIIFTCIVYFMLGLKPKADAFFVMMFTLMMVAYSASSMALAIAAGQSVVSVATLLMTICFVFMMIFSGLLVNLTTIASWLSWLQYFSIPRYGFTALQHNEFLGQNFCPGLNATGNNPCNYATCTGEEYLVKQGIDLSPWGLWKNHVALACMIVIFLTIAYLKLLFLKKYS
Protocol: The test compound (FFA or nFFA) or the positive control substrate ([…], respectively) was added to the donor chamber. […] Cells were then washed, lysed with scintillation cocktail, and analyzed for the probe substrate with a MicroBeta scintillation counter (PerkinElmer, Hopkinton, MA). Transcellular transporter assay conditions are described in Supplemental Table 1. Calculation of IC50 values was based on bidirectional permeability of probe substrate with and without the inhibitor in MDCKII cells expressing BCRP and in Caco‐2 cells expressing P‐gp, and transporter‐dependent uptake of probe substrate in HEK293 cells expressing all other transporters (Supplemental Table 1).
The net flux for human epithelial colorectal adenocarcinoma cells (Caco-2; P-gp) and MDCKII-BCRP inhibition determination was calculated according to the equation: […]

[4] = Pharmacokinetic input parameters of the mechanistic static model (population pharmacokinetics); conditions: for Portal inlet [I]h: calculated as (Imax + (Fa × Fg × ka × molar dose) / Qh) / Rb; for Cmax, unbound: calculated as Cmax, total (ng/mL)/MW * fu
[5] = target: CYP2C19 (Homo sapiens, UniProt P33261); assay: Direct CYP450 inhibition in human liver microsomes (S-mephenytoin 4'-hydroxylation); conditions: for Inhibition (%): FFA up to 60 µM, nFFA up to 100 µM; for Basic model: R1: R1 = 1 + (Imax,u/Ki,u)
Chain of CYP2C19 (P33261 whole entry): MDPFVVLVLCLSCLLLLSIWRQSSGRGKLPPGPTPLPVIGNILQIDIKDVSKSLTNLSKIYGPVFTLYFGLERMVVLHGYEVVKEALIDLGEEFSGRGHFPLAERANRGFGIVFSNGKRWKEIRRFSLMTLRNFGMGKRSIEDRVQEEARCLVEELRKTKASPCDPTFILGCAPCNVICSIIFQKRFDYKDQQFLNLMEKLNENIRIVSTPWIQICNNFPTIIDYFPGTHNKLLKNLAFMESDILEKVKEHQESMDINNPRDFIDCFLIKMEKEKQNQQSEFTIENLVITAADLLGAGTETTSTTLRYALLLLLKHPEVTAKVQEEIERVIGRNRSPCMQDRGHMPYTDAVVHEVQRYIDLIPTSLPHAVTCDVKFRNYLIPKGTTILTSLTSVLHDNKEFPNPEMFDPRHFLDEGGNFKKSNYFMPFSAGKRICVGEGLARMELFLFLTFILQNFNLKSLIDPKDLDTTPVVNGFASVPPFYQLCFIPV
Text: (§1) A mixed‐gender pool of 200 individual human liver microsomal samples was used.
(§2) This LIMS utilizes the Levenberg-Marquardt algorithm to perform nonlinear regression fitting of the data to the following 4-parameter sigmoidal-logistic IC50 equation:
(§3) As percent of control values are utilized, the Min is set to 0 and the Max is set to 100 (or other values, as appropriate). […] Therefore, when an IC50 value falls outside the concentration range studied, the IC50 values are reported to be greater than the highest concentrations of test article evaluated.

[6] = system: CYP3A4/5; assay: Direct CYP450 inhibition in human liver microsomes (midazolam 1'-hydroxylation; testosterone 6β-hydroxylation); conditions: for Basic model: R1,gut: R1,gut = 1 + (Igut/Ki,u); for Basic model: R1: R1 = 1 + (Imax,u/Ki,u)
Text: as §1, §2, §3

[7] = target: CYP2D6 (Homo sapiens, UniProt P10635); assay: Time- and metabolism-dependent inhibition, 30-min preincubation with or without NADPH (dextromethorphan O-demethylation); conditions: for IC50: human liver microsomes; for inhibition at 30 min: both, human, pooled human liver microsomes, pH 7.4, probe dextromethorphan (O-demethylation)
Chain of CYP2D6 (P10635 whole entry): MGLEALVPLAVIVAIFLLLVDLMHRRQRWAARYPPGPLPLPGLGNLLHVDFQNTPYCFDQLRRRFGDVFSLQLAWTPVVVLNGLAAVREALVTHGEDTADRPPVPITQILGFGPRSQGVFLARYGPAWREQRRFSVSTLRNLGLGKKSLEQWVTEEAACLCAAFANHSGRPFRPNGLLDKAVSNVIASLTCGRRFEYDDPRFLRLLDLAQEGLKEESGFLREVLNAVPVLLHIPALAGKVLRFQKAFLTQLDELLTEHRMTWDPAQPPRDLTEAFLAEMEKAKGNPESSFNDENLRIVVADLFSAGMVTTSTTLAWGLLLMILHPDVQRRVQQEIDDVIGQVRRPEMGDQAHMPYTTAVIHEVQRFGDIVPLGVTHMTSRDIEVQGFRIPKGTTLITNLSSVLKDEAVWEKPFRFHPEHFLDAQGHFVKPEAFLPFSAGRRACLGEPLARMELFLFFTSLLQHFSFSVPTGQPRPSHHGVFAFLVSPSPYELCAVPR
Protocol: These preincubations allowed assessment of the NADPH‐dependence of any time‐dependent CYP450 inhibition. Following the 30‐min preincubation, the NADPH‐generating system and/or marker substrate was added, and incubations were continued as described previously to measure residual CYP450 enzyme activity.

[8] = direct inhibition, substrate S-mephenytoin

CCNC(C)Cc1cccc(C(F)(F)F)c1 (racemic) [FFA, (RS)‐ethyl(α‐methyl‐3‐trifluoromethylphenethyl)amine, reference compound]
time- or metabolism-dependent inhibition of CYP450 enzyme activity [1]: did not have any additional inhibitory effects | Static mechanistic model: Potential to induce [2]: No (key: Yes: AUCR <0.8 to denote induction; No: AUCR <0.8 to denote induction) | EC50 ([2]; human, Basic kinetic model: EC50, hepatocytes HC7‐8): 8.53 ± 4.3 µM | EC50 ([2]; human, Basic kinetic model: EC50, hepatocytes HC10‐8): 20.4 ± 1.9 µM | EC50 ([2]; human, Basic kinetic model: EC50, hepatocytes HC10‐10): 9.05 ± 3.6 µM | CYP3A4 induction (abstract) ([2]; human, hepatocytes): 1.9-3.0 fold | IC50 [3]: > 100 µM | Portal inlet [I]h [4]: 0.362 µM | Cmax, unbound [4]: 162 nM | IC50 [5]: > 60 µM | Inhibition (%) [5, 8]: 14% | Basic model: Potential for clinical inhibition ([5]; substrate S-mephenytoin): No (Potential to inhibit if R1 ≥ 1.02) | Static mechanistic model: Potential for clinical inhibition ([5]; substrate S-mephenytoin): No (Potential to inhibit if AUCR ≥ 1.25) | Basic model: R1 ([5]; substrate S-mephenytoin): 1.01 | IC50 ([6]; both, human, pooled human liver microsomes, pH 7.4, probe midazolam (1'-hydroxylation)): > 600 µM | IC50 ([6]; both, human, pooled human liver microsomes, pH 7.4, probe testosterone (6β-hydroxylation)): > 600 µM | Basic model: Potential for clinical inhibition (R1) ([6]; substrate midazolam): No No ^b (Potential to inhibit if R1 ≥ 1.02) | Basic model: Potential for clinical inhibition (R1,gut) ([6]; substrate midazolam): No No ^b (Potential to inhibit if R1,gut ≥ 11) | Static mechanistic model: Potential for clinical inhibition ([6]; substrate midazolam): No (Potential to inhibit if AUCR ≥ 1.25) | Basic model: R1,gut ([6]; substrate midazolam): NC R1,gut = 1.78 | Basic model: Potential for clinical inhibition (R1) ([6]; substrate testosterone): No No ^b (Potential to inhibit if R1 ≥ 1.02) | Basic model: Potential for clinical inhibition (R1,gut) ([6]; substrate testosterone): No No ^b (Potential to inhibit if R1,gut ≥ 11) | Static mechanistic model: Potential for clinical inhibition ([6]; substrate testosterone): No (Potential to inhibit if AUCR ≥ 1.25) | Basic model: R1,gut ([6]; substrate testosterone): 1.81 | Basic model: R1 ([6]; substrate testosterone): 1.00 | IC50 ([7]; IC50 (+ NADPH), 30-min preincubation in the presence of NADPH): 10 µM | IC50 ([7]; IC50 (- NADPH), 30-min preincubation in the absence of NADPH): 4.5 µM | inhibition at 30 min ([7]; % inhibition (+ NADPH), 30-min preincubation in the presence of NADPH): 82% | inhibition at 30 min ([7]; % inhibition (- NADPH), 30-min preincubation in the absence of NADPH): 89%

CC(N)Cc1cccc(C(F)(F)F)c1.Cl (stereo not shown) [nFFA, [1‐(3‐trifluoromethyl)phenyl]propan‐2‐amine hydrochloride]
time- or metabolism-dependent inhibition of CYP450 enzyme activity [1]: did not have any additional inhibitory effects | Basic kinetic model: Potential to induce ([2]; hepatocytes HC7‐8): Yes | Basic kinetic model: R3 ([2]; hepatocytes HC7‐8): 0.79 | Fold‐change method: Potential to induce ([2]; hepatocytes HC7‐8): Yes | Static mechanistic model: Potential to induce ([2]; hepatocytes HC7‐8): No (AUCR <0.8 to denote induction) | Fold‐change method: Fold change ([2]; hepatocytes HC7‐8): 4.91 fold | Fold‐change method: % of control ([2]; hepatocytes HC7‐8): 3.68% | Basic kinetic model: Emax (fold) ([2]; hepatocytes HC7‐8): 3.92 ± 0.048 fold | Basic kinetic model: Potential to induce ([2]; hepatocytes HC10‐8): No | Basic kinetic model: R3 ([2]; hepatocytes HC10‐8): 0.86 | Fold‐change method: Potential to induce ([2]; hepatocytes HC10‐8): Yes | Static mechanistic model: Potential to induce ([2]; hepatocytes HC10‐8): No (AUCR <0.8 to denote induction) | Fold‐change method: Fold change ([2]; hepatocytes HC10‐8): 5.75 fold | Fold‐change method: % of control ([2]; hepatocytes HC10‐8): 15.30% | Basic kinetic model: Emax (fold) ([2]; hepatocytes HC10‐8): 6.95 ± 1.0 fold | Basic kinetic model: Potential to induce ([2]; hepatocytes HC10‐10): No | Basic kinetic model: R3 ([2]; hepatocytes HC10‐10): 0.84 | Fold‐change method: Potential to induce ([2]; hepatocytes HC10‐10): Yes | Static mechanistic model: Potential to induce ([2]; hepatocytes HC10‐10): No (AUCR <0.8 to denote induction) | Fold‐change method: Fold change ([2]; hepatocytes HC10‐10): 4.57 fold | Fold‐change method: % of control ([2]; hepatocytes HC10‐10): 4.85% | Basic kinetic model: Emax (fold) ([2]; hepatocytes HC10‐10): 3.61 ± 0.40 fold | EC50 ([2]; read-out: Basic kinetic model: EC50, hepatocytes HC7‐8): 12.9 ± 0.38 µM | EC50 ([2]; read-out: Basic kinetic model: EC50, hepatocytes HC10‐8): 37.8 ± 5.6 µM | EC50 ([2]; read-out: Basic kinetic model: EC50, hepatocytes HC10‐10): 17.1 ± 3.9 µM | IC50 ([3]; MDCKII, probe prazosin 1 µM, read-out: IC50): > 50 µM | Portal inlet [I]h [4]: 0.094 µM | Cmax, unbound [4]: 94 nM | IC50 ([5]; direct inhibition, human liver microsomes, substrate S-mephenytoin): > 100 µM | Inhibition (%) [5, 8]: 2.9% | Basic model: Potential for clinical inhibition ([5]; substrate S-mephenytoin): No (Potential to inhibit if R1 ≥ 1.02) | Static mechanistic model: Potential for clinical inhibition ([5]; substrate S-mephenytoin): No (Potential to inhibit if AUCR ≥ 1.25) | Basic model: R1 ([5]; substrate S-mephenytoin): 1.00 | IC50 ([6]; direct inhibition, human liver microsomes, substrate midazolam): > 100 µM | IC50 ([6]; direct inhibition, human liver microsomes, substrate testosterone): > 100 µM | Basic model: Potential for clinical inhibition (R1) ([6]; substrate midazolam): No (Potential to inhibit if R1 ≥ 1.02) | Static mechanistic model: Potential for clinical inhibition ([6]; substrate midazolam): No (Potential to inhibit if AUCR ≥ 1.25) | Basic model: Potential for clinical inhibition (R1) ([6]; substrate testosterone): No (Potential to inhibit if R1 ≥ 1.02) | Static mechanistic model: Potential for clinical inhibition ([6]; substrate testosterone): No (Potential to inhibit if AUCR ≥ 1.25) | Basic model: R1 ([6]; substrate testosterone): 1.00 | % inhibition (- NADPH) ([7]; 30-min preincubation in the absence of NADPH): 82% | % inhibition (+ NADPH) ([7]; 30-min preincubation in the presence of NADPH): 80% | IC50 ([7]; read-out: IC50 (+ NADPH), 30-min preincubation in the presence of NADPH): 17 ± 1 µM | IC50 ([7]; read-out: IC50 (- NADPH), 30-min preincubation in the absence of NADPH): 15 ± 1 µM
